The test system of assay [1] is different strains of H. pylori. The assay can be described thus: In vitro studies against different strains of H. pylori. The class given is cell-based, Helicobacter pylori. The text has this:
The present disclosure is based in part on the unexpected finding of bacteriostatic and/or bacteriocidic action of fusidic acid or a pharmaceutically acceptable salt or solvate thereof (e.g. sodium fusidate) against H. pylori. […] This finding provides a significant advantage over the hitherto known treatments, by increasing the percentage of patients in which eradication is achieved, reducing doses and side effects of conventional add-on therapy, preserving gut microbiota, and decreasing exposure to conventional antibiotics thereby decreasing antibiotic resistance. In addition, fusidic acid and/or salts and solvates thereof have no cross-resistance with the existing antibiotics used for the treatment of H. pylori and have low probability for developing resistance.

For another assay, the system named is H. pylori ATCC No. 43826. In words: Disk diffusion susceptibility of H. pylori to sodium fusidate. The class given is cell-based, Helicobacter pylori. The settings on record: 4 days at 37° C., sample No. = replicate disk. The protocol:
(§1) In vitro testing for the susceptibility of H. pylori to sodium fusidate was performed. Inoculation was made with a broth culture of two ATCC strains of H. pylori (ATCC No. 700824 and 43826) diluted to match a 0.5 McFarland turbidity standard. Disks containing increasing antibiotic concentrations (0.5-4.0%) were placed on seeded bacterial lawn on agar surface. Three disks with the same antibiotic concentration were placed on each plate. The disks were evenly distributed in a circle towards the periphery of the plate. Plates were incubated for 4 days at an incubation temperature of 37° C. (with Microaerophilic pach). Diameter of inhibition sizes was measured wherein each disk was considered to represent the center of the clear zone, namely the slope of the regression line is construed to correspond to the diffusion coefficient of the antibiotic in the agar. Negative control disks containing water instead of antibiotics were placed at the center of each dish. A separate plate with no disks was prepared as an additional control. […]
A general note: In agar diffusion tests the substance spreads into inoculated agar from a disc or well.

Assay [2] deals with H. pylori ATCC No. 700824. Described as above. The following applies: 4 days at 37° C., sample No. = replicate disk. The class given is cell-based, Helicobacter pylori. The protocol:
as §1

The next assay concerns H. pylori. The following applies: cited from earlier work.
Setting [3] is: sodium fusidate con. 0.5% on disk.
Where [4] appears, read: sodium fusidate con. 1.0% on disk.
Setting [5] is: sodium fusidate con. 4.0% on disk.

Several values for one entry are separate records, joined by “and”; a condition that tells them apart may be missing. Equal entries are not always repeated.

As to `CC(=O)O[C@H]1C[C@@]2(C)[C@@H](C[C@@H](O)[C@H]3[C@@]4(C)CC[C@@H](O)[C@@H](C)[C@@H]4CC[C@@]32C)/C1=C(\CCC=C(C)C)C(=O)O` [Sodium fusidate, sodium fusidate], the “Activity against different strains of H. pylori” value in assay [1] was “active”. For the same compound, the Diameter of inhibition was ≥4.4 cm in the assay with H. pylori ATCC No. 43826 (setting [3]); ≥4.4 cm with H. pylori ATCC No. 43826 (setting [4]); ≥4.4 cm in the assay with H. pylori ATCC No. 43826 (setting [5]); 1.6 cm and 2 cm and 2.4 cm in assay [2] (setting [3]); 2.7 cm and 2.6 cm and 3.0 cm in assay [2] (setting [4]); ≥4.4 cm in assay [2] (setting [5]).
Regarding `CC(=O)O[C@H]1C[C@@]2(C)[C@@H](C[C@@H](O)[C@H]3[C@@]4(C)CC[C@@H](O)[C@@H](C)[C@@H]4CC[C@@]32C)/C1=C(\CCC=C(C)C)C(=O)O` [fusidic acid, 29-Nordammara-17(20),24-dien-21-oic acid, 16-(acetyloxy)-3,11-dihydroxy-, (3α, 4α, 8α, 9α, 11α, 13α, 14β, 16β, 17Z)-], the “Activity against different strains of H. pylori” value in assay [1] is listed as “active”. Also, the “Efficacy as monotherapy against H. pylori” value in the assay with H. pylori was “ineffective”.

These data come from patent publication US11096948B2, “Methods for treating helicobacter infection” (DEXCEL PHARMA TECHNOLOGIES LTD., priority 2016, dated 2021).
